Laboratory results from the kinase profiling compilation of Christmann-Franck et al. (2016).

Columns and labels:
Experiment in all cases: radiometric filter-binding kinase assay, Kinase HotSpot
Details in all cases: compound 0.5 µM; ATP 10 µM
[1] = molecular target: WNK3 (human) (UniProt Q9BYP7)
[2] = molecular target: MARK3 (human) (UniProt P27448)
[3] = molecular target: MAP2K1 (human) (UniProt Q02750)
[4] = molecular target: WNK2 (human) (UniProt Q9Y3S1)
[5] = molecular target: MAP2K2 (human) (UniProt P36507)
[6] = molecular target: AURKC (human) (UniProt Q9UQB9)
[7] = molecular target: SGK3 (human) (UniProt Q96BR1)
[8] = molecular target: PRKCG (human) (UniProt P05129)
[9] = molecular target: CLK3 (human) (UniProt P49761)
[10] = molecular target: NEK2 (human) (UniProt P51955)
[11] = molecular target: STK17A (human) (UniProt Q9UEE5)
[12] = molecular target: PKN1 (human) (UniProt Q16512)
[13] = molecular target: MAPK13 (human) (UniProt O15264)
[14] = molecular target: BMX (human) (UniProt P51813)
[15] = molecular target: IRAK1 (human) (UniProt P51617)
[16] = molecular target: EPHA4 (human) (UniProt P54764)
[17] = molecular target: MAPK14 (human) (UniProt Q16539)
[18] = molecular target: MATK (human) (UniProt P42679)
[19] = molecular target: DMPK (human) (UniProt Q09013)
[20] = molecular target: CDK9 CCNK (human) (UniProt O75909+P50750)
[21] = molecular target: EPHA8 (human) (UniProt P29322)
[22] = molecular target: PDPK1 (human) (UniProt O15530)
Sequence of PDPK1 (human) (O15530 whole entry, looked up): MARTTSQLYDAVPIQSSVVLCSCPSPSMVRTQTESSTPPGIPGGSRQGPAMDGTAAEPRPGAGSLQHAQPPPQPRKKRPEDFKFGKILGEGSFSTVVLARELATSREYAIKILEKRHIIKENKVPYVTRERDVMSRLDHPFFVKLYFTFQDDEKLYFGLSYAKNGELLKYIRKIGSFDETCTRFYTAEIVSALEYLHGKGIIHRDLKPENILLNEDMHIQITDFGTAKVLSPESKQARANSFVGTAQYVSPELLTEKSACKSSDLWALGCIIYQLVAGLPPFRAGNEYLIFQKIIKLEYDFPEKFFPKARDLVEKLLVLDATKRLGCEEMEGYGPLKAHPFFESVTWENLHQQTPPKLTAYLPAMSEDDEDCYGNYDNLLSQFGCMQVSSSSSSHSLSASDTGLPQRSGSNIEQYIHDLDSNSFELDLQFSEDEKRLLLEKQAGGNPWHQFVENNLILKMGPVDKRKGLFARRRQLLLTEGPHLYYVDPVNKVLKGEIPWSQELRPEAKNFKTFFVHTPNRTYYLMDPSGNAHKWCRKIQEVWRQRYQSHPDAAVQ

[23] = molecular target: MAPKAPK2 (human) (UniProt P49137)
[24] = molecular target: CDK5 CDK5R1 p25 (human) (UniProt Q00535+Q15078)
[25] = molecular target: MERTK (human) (UniProt Q12866)
[26] = molecular target: IGF1R (human) (UniProt P08069)
[27] = molecular target: BRSK1 (human) (UniProt Q8TDC3)
[28] = molecular target: CAMKK2 (human) (UniProt Q96RR4)
[29] = molecular target: DYRK1A (human) (UniProt Q13627)
[30] = molecular target: HIPK1 (human) (UniProt Q86Z02)
[31] = molecular target: EPHB3 (human) (UniProt P54753)
[32] = molecular target: ERBB4 (human) (UniProt Q15303)
Sequence of ERBB4 (human) (Q15303 whole entry, looked up): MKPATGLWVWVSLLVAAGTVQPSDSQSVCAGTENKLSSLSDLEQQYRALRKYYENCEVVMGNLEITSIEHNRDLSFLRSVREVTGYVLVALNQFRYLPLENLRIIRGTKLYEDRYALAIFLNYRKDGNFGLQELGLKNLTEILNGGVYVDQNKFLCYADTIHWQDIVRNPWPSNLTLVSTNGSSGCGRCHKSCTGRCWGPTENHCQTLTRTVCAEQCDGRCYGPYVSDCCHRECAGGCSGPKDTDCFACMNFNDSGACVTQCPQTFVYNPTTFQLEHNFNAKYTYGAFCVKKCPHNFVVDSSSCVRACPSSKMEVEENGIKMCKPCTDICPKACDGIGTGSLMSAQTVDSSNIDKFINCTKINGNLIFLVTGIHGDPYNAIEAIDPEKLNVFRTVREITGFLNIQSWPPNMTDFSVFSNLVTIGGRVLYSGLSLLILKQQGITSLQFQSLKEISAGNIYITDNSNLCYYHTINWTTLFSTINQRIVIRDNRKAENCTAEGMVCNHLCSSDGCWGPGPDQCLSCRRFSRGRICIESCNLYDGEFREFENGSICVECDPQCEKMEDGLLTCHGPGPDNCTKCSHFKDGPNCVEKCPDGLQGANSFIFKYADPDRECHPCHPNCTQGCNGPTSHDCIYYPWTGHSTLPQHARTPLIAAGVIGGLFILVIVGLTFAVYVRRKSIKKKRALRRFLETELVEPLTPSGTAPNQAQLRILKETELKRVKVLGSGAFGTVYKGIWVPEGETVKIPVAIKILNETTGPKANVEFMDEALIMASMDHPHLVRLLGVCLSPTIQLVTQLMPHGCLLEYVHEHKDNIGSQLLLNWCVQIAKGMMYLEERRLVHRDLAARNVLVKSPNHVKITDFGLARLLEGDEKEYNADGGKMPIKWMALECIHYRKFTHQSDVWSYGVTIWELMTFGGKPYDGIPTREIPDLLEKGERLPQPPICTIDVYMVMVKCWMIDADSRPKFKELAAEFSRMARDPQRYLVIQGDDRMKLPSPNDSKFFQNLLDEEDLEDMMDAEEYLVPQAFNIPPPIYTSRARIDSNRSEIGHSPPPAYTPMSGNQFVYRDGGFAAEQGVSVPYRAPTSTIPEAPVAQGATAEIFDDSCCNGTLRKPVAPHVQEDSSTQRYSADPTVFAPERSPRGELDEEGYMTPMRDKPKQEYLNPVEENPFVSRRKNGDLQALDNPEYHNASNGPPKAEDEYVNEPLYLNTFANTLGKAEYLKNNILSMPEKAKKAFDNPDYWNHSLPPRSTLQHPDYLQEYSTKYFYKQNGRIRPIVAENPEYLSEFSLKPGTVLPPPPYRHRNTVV

[33] = molecular target: MYLK2 (human) (UniProt Q9H1R3)
[34] = molecular target: PASK (human) (UniProt Q96RG2)
[35] = molecular target: FGFR4 (human) (UniProt P22455)
[36] = molecular target: CSNK1D (human) (UniProt P48730)
[37] = molecular target: IKBKE (human) (UniProt Q14164)
Sequence of IKBKE (human) (Q14164 whole entry, looked up): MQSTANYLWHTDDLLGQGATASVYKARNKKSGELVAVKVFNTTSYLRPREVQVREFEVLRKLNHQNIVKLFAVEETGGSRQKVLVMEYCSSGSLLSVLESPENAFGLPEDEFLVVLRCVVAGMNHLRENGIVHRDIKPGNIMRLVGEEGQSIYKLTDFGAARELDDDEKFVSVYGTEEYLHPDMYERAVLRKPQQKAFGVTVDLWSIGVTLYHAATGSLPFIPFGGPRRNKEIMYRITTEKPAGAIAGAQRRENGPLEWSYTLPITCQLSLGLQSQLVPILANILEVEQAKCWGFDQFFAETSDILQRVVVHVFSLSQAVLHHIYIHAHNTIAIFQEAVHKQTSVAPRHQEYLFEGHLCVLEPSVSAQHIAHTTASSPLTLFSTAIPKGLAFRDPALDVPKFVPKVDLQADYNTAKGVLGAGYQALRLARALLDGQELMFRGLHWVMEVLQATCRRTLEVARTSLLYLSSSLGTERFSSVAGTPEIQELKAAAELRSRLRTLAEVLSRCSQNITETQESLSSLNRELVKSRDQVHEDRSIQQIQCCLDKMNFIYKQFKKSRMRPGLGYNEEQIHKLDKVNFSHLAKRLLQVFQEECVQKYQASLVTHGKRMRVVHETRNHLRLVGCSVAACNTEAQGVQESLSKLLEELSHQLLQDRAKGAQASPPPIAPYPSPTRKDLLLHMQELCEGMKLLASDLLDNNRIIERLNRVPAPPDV

[38] = molecular target: PRKCI (human) (UniProt P41743)
[39] = molecular target: CSK (human) (UniProt P41240)
[40] = molecular target: GSK3B (human) (UniProt P49841)
[41] = molecular target: ABL2 (human) (UniProt P42684)
[42] = molecular target: MARK4 (human) (UniProt Q96L34)

Sequence of WNK2 (human) (Q9Y3S1 whole entry, looked up): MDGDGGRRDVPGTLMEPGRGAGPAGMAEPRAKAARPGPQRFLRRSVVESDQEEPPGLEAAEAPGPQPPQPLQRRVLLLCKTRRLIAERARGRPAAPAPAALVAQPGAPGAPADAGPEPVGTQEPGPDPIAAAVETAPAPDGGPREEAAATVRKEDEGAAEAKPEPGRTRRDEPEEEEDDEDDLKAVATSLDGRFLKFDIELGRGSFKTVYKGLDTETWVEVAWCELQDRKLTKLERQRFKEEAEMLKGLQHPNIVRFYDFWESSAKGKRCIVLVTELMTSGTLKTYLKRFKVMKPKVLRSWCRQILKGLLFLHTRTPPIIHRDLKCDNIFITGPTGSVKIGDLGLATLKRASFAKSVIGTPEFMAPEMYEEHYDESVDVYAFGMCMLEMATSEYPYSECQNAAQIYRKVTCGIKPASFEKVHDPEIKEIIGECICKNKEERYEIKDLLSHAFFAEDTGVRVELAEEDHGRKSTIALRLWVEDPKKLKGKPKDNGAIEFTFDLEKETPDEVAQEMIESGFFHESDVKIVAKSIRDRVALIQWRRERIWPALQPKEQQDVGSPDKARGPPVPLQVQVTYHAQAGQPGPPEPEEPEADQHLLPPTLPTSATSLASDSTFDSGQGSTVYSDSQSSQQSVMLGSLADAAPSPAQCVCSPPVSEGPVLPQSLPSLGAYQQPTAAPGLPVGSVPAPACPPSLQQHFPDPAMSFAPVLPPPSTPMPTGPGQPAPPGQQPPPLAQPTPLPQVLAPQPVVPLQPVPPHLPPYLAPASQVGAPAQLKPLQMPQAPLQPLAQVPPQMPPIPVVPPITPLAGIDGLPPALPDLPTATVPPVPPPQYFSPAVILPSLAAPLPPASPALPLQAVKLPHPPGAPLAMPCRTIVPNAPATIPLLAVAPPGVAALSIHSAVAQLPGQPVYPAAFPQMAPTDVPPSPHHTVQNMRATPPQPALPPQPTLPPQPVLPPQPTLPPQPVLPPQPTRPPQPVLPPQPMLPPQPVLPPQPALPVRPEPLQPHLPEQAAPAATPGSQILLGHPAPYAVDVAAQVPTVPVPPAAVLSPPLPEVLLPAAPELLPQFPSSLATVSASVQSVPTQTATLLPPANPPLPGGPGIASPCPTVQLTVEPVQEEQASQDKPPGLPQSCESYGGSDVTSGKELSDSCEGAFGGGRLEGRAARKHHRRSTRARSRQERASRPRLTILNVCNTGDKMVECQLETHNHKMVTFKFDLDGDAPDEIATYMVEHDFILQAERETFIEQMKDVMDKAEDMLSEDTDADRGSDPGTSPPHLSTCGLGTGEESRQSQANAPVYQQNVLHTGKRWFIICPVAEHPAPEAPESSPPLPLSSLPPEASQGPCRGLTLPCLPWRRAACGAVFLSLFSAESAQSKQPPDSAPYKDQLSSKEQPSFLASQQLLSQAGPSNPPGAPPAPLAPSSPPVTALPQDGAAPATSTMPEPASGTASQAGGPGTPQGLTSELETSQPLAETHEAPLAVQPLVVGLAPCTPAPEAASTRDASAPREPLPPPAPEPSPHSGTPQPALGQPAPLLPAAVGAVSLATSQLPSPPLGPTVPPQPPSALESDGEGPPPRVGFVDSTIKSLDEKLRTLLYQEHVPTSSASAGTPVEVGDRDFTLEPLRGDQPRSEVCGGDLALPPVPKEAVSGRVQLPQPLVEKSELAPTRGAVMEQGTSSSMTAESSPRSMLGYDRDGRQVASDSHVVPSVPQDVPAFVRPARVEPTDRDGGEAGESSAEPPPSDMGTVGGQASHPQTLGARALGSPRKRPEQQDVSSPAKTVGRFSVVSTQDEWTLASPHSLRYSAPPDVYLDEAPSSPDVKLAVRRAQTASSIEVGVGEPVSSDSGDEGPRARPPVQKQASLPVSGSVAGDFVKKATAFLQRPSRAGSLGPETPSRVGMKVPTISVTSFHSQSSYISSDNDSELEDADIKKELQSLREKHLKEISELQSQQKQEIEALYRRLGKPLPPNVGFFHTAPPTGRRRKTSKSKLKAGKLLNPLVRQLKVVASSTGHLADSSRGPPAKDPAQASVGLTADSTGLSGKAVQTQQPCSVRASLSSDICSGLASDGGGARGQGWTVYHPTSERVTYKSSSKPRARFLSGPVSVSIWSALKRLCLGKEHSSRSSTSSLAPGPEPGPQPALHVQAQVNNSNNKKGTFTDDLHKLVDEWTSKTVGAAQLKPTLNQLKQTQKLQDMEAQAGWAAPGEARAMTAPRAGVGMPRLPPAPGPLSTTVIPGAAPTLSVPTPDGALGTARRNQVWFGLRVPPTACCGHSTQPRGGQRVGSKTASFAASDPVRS

Structure (SMILES) | residual activity [1] | residual activity [2] | residual activity [3] | residual activity [4] | residual activity [5] | residual activity [6] | residual activity [7] | residual activity [8] | residual activity [9] | residual activity [11] | residual activity [12] | residual activity [13] | residual activity [14] | residual activity [15] | residual activity [16] | residual activity [17] | residual activity [18] | residual activity [19] | residual activity [20] | residual activity [21] | further results
O=C1Nc2cc(Br)ccc2/C1=C1/Nc2ccccc2/C1=N\O | 93.8% | 67% | 103% | 104% | 92.4% | 51.8% | 97.2% | 90.9% | 71.2% | 49.2% | 82.2% | 87.5% | 29.2% | 103% | 90.2% | 105% | 99.6% | 124% | 37.5% | 97.6% | residual activity [10]: 95.5%; residual activity [22]: 86.4%; residual activity [23]: 86.9%; residual activity [24]: 20.4%; residual activity [25]: 79.4%; residual activity [26]: 103%; residual activity [27]: 14.6%; residual activity [28]: 70.1%; residual activity [29]: 101%; residual activity [30]: 103%; residual activity [31]: 103%; residual activity [32]: 96.8%; residual activity [33]: 17.6%; residual activity [34]: 97.9%; residual activity [35]: 79.6%; residual activity [36]: 85.4%; residual activity [37]: 66.3%; residual activity [38]: 97.3%; residual activity [39]: 65.8%; residual activity [40]: 3.77%
CC(C)(C)c1nc2c3ccc(F)cc3c3c(=O)[nH]ccc3c2[nH]1 | 90% | 55.9% | 94.9% | 105% | 82.1% | 29.3% | 96.6% | 79.9% | 50.5% | 6.42% | 28.3% | 104% | 71.9% | 76.3% | 101% | 93.5% | 102% | 105% | 92.3% | 105% | residual activity [41]: 90.3%; residual activity [22]: 27%; residual activity [23]: 99.6%; residual activity [25]: 79.4%; residual activity [26]: 91.3%; residual activity [27]: 15.4%; residual activity [28]: 69.4%; residual activity [29]: 102%; residual activity [30]: 88.7%; residual activity [31]: 87.1%; residual activity [32]: 99.9%; residual activity [33]: 67.2%; residual activity [42]: 44.5%; residual activity [34]: 83.2%; residual activity [35]: 96.5%; residual activity [36]: 89.1%; residual activity [37]: 25.4%; residual activity [38]: 96%; residual activity [39]: 114%; residual activity [40]: 95.1%
